Source: patent US12297457B2, “Esophageal tissue and/or organoid compositions and methods of making same” (Children's Hospital Medical Center, priority 2017, dated 2025)

Experiments:
[1] = test system: Xenopus endoderm explants; experiment: nkx2-1 in situ hybridization of Xenopus endoderm explants; type: cell-based, Xenopus laevis; conditions: sox2 morpholino knock down; explants analysed at stage NF35
Method: Xenopus laevis adults were purchased from the Nasco (Fort Atkinson, Wis.), and housed according to CCHMC IACUC protocols. Ovulation, in vitro fertilization, and de-jellying of embryos were performed as described (Sive et al., 2000). A mixture of previously validated Sox2 morpholinos (MOs; Van Raay et al., 2005) targeting the 5′UTR (Sox2-UTR MO) and the ATG start codon (Sox2-ATG MO) were injected at the 8-cell stage into each vegetal blastomere (2 ng total MO per blastomere, 8 ng total per embryo) to target endoderm. MOs were synthesized and purchased from GeneTools. Equal amount of control MO was used in control injections.
For Xenopus explant studies, stage NF20 foregut endoderm tissue was micro-dissected in 1×MBS (Modified Barth's Saline; Sive et al., 2000)+50 ug/mL gentamycin sulfate (MP Biochemicals), +4% Ficoll-400 (Sigma) and explants were then cultured in 0.5×MBS+0.1% Fatty Acid Free BSA (Fisher)+50 ug/mL gentamycin sulfate with or without the following concentrations of small molecules or recombinant proteins from stages […] (approximately 48 hours): 3.5 μM Bio (Tocris), 50 ng/mL recombinant human BMP4 (R&D systems).
In situ hybridization on mouse sections was performed by generating DIG-labeled probes from linearized mouse cDNA plasmids. […]

AFG spheroids = experiment: Dorsal-ventral patterning / respiratory induction of anterior foregut spheroids (qPCR, IF); type: cell-based, human; conditions: TGFβ inhibitor added during foregut induction; day 9 spheroids
Method: (§1) Alternately, for the generation of anterior foregut spheroids, from definitive endoderm, cells were treated with FGF4 (500 ng mL-1, R&D systems), Noggin (200 ng mL-1) for 3 days in RPMI 1640 with 2% dFBS. Additional factors were tested during this time (described in results), such as CHIR99021 (“chiron” or “chr”, 2 μM, Tocris), Wnt3a (500 ng mL-1, R&D systems), SB431542 (10 μM, Tocris), DEAB (10 μM, Sigma), and retinoic acid (2 μM).
Anterior foregut spheroids were transferred into 50 μL droplets of Matrigel, and are cultured for 3-58 days in the base (“Gut”) media of Advanced DMEM/F12 (ThermoFisher Scientific) supplemented with B27 supplement (1×, ThermoFisher Scientific), N2 supplement (1×, ThermoFisher Scientific), HEPES (13 mM, ThermoFisher Scientific), L-Glutamine (2 mM ThermoFisher Scientific), penicillin/streptomycin (1×, ThermoFisher Scientific), and EGF (100 ng mL^−1, R&D systems). In addition to this base media, the first three days were supplemented with Noggin (200 ng mL^−1), FGF10 (50 ng mL^−1), and CultureOne supplement (1×, ThermoFisher Scientific). […]
Spheroid and organoids were harvested in total, including the embedding matrigel. […] For qRT-PCR, Applicant used Quantitect SYBR-Green master mix (Qiagen) and ran the reaction on a QuantStudio 6 machine (ThermoFisher Scientific). […]

foregut spheroids = experiment: Anterior-posterior patterning of foregut spheroids (qPCR, IF); type: cell-based, human; conditions: TGFβ inhibitor added during foregut induction; SB431542, 10 μM
Method: Confluent hPSC cultures were treated with Acutase (STEMCELL Technologies) to resuspend as single cells in mTeSR1 and Y-27632 (10 μM, Tocris) and plated on Matrigel. On the following day, differentiation into definitive endoderm was carried out as previously described (McCracken et al., 2014). Briefly, cells were treated with Activin A (100 ng mL-1, R&D systems, Minneapolis, Minn.) and BMP4 (50 ng mL-1, R&D systems) on the first day in RPMI 1640 media (Life Technologies). Cells in the following two days were treated with only Activin A (100 ng mL-1) in RPMI 1640 with increasing concentrations 0.2% and 2% of HyClone defined fetal bovine serum (dFBS, GE Healthcare Life Sciences).
For anterior foregut monolayer cultures, cells were treated for 3 days in Noggin (200 ng mL-1) in RPMI 1640 with 2% dFBS, with all-trans retinoic acid (2 μM, Sigma, St. Louis, Mo.) the 3rd day.
as §1
Tissue cultures were fixed with 4% paraformaldehyde at either room temperature for 15 minutes, 4° C. for 2 hours for cryosectioning, or 4° C. overnight for paraffin embedding/sectioning and mouse embryos. For paraffin embedding and sectioning, following fixation, tissues were dehydrated and embedded into paraffin blocks. Afterwards, paraffin-sectioned slides were deparaffinized and subjected to antigen retrieval in 10 mM sodium citrate for 30 minutes prior to staining. For cryosectioning, tissues were thoroughly washed in PBS, left in 30% sucrose overnight, embedded in OCT compound (VWR), and sectioned at a thickness of 8 μm. Commonly, slides were then permeabilized with 0.5% TritonX-100 in PBS for 10 minutes, blocked in 5% normal donkey serum (Jackson ImmunoResearch) for 1 hour, and incubated in primary antibody overnight at 4° C. On the next day, slides were thoroughly washed in PBS, incubated in secondary antibody (at 1:500) for 1 hour, and then thoroughly washed again. For EdU visualization, Applicant used the Click-iT EdU Alexa Fluor 488 Imaging Kit (Invitrogen) prior to blocking. For wholemount immunofluorescence staining, embryos were placed in 100% methanol immediately after fixation. Embryos were then permeabilized with Dent's Bleach (4:1:1 MeOH:DMSO:30% H2O2) for 2 hours at room temperature, rehydrated with methanol washes, and blocked for several hours at room temperature to overnight at 4° C. Primary antibodies were applied and embryos incubated overnight at 4° C. Then, embryos were thoroughly washed in 0.1% TritonX-100 in PBS before incubating in secondary antibodies overnight at 4° C. Finally, embryos were washed again, dehydrated with methanol washes, and cleared with Murray's Clear (2:1 benzyl benzoate:benzyl alcohol, Sigma) at least 15 minutes prior to imaging. For a list of antibodies and dilutions used, please see Table 2.
Spheroid and organoids were harvested in total, including the embedding matrigel. Collagen plugs from the organotypic raft cultures were first removed from the transwell on day 14, and subsequently harvested in total. Total RNA was isolated using the NucleoSpin RNA kit (Macherey-Nagel) and reverse transcribed to cDNA using the SuperScript VILO cDNA synthesis kit (ThermoFisher Scientific). For qRT-PCR, Applicant used Quantitect SYBR-Green master mix (Qiagen) and ran the reaction on a QuantStudio 6 machine (ThermoFisher Scientific). For a list of primers used, please see Table 1.

[2] = test system: anterior foregut (AFG) cultures; experiment: Doxycycline-induced CDX2 in anterior foregut cultures (IF quantification); type: cell-based, human; conditions: AFG cultures treated for 1 day
Method: Human embryonic stem cell (hESC) line H1 (WA01, person) were purchased from WiCell. iPSC line iPS106 was generated in-house and approved by the institutional review board at CCHMC. All hPSCs were maintained on feeder-free cultures: cells were plated on hESC-qualified Matrigel (BD Biosciences, San Jose, Calif.) and maintained at 37° C. with 5% CO2 with daily replacement of mTeSR1 media (STEMCELL Technologies, Vancouver, Canada); cells were passaged routinely every 4 days using Dispase (STEMCELL Technologies). The HA-tagged SOX2, CDX2, or FANCA dox-inducible lines were generated by first cloning the human SOX2 ORF, CDX2 ORF, or FANCA ORF into pINDUCER20 (respectively) (Addgene #44012, Meerbrey et al., 2011). Next, lentivirus was generated with help of the Viral Vector Core Facility at CCHMC. The lentivirus for HA-SOX2 and CDX2 were transduced into hESCs with 2 μL of virus; these lines were maintained on selection with mTeSR1 and G418 (500 μg mL-1, ThermoFisher Scientific). The lentivirus for FANCA were transduced prior to the iPS106 line generation, as FANCA is required for maintenance of hPSC properties. The hESC H1 line (and transduced derivatives) was used in all experiments excluding Fanconi Anemia modeling in HEOs, which used the iPS106 line. […]

[3] = test system: dorsally-patterned AFG spheroids; experiment: Outgrowth of dorsally-patterned AFG spheroids into esophageal organoids; type: cell-based, human; conditions: added from day 6 to day 13
Method: Anterior foregut spheroids were transferred into 50 μL droplets of Matrigel, and are cultured for 3-58 days in the base (“Gut”) media of Advanced DMEM/F12 (ThermoFisher Scientific) supplemented with B27 supplement (1×, ThermoFisher Scientific), N2 supplement (1×, ThermoFisher Scientific), HEPES (13 mM, ThermoFisher Scientific), L-Glutamine (2 mM ThermoFisher Scientific), penicillin/streptomycin (1×, ThermoFisher Scientific), and EGF (100 ng mL^−1, R&D systems). In addition to this base media, the first three days were supplemented with Noggin (200 ng mL^−1), FGF10 (50 ng mL^−1), and CultureOne supplement (1×, ThermoFisher Scientific). FGF10 and CultureOne supplementation is continued until the end of the first week in three-dimensional culture. Media was replaced every 3-4 days. For EdU labeling, media was supplemented with EdU (10 μM Invitrogen) for a defined period of time, and was removed by washing with sterile PBS twice before replacing with media without EdU.

`O=C1Nc2cc(Br)ccc2/C1=C1/Nc2ccccc2/C1=N\O` [Bio] was tested, and the nkx2-1 expression [1] was “did not activate nkx2-1 expression”.

With `NC(=O)c1ccc(-c2nc(-c3ccc4c(c3)OCO4)c(-c3ccccn3)[nH]2)cc1` [TGFβ inhibitor, SB431542, reference compound] the “upregulation of NKX2-1 on respiratory induction” value (AFG spheroids) was “reduces upregulation of NKX2-1” and the posterior foregut markers (foregut spheroids) was “increase in posterior foregut markers”.

In the case of `C[C@H]1c2cccc(O)c2C(=O)C2=C(O)[C@]3(O)C(=O)C(C(N)=O)=C(O)[C@@H](N(C)C)[C@@H]3[C@@H](O)[C@@H]21` [doxycycline, Doxycycline], the “doxycycline concentration at which CDX2 induction saturates” value [2] is reported as 100 to 500 ng/mL.

B1: FGF10: recombinant human FGF10 (protein, UniProt O15520 38-208, looked up)
Fibroblast growth factor 10: QALGQDMVSPEATNSSSSSFSSPSSAGRHVRSYNHLQGDVRWRKLFSFTKYFLKIEKNGKVSGTKKENCPYSILEITSVEIGVVAVKAINSNYYLAMNKKGKLYGSKEFNNDCKLKERIEENGYNTYASFNWQHNGRQMYVALNGKGAPRRGQKTRRKNTSAHFLPMVVHS
B1 was tested, and the “efficiency of spheroid to organoid outgrowth” value [3] was “improved efficiency of spheroid to organoid outgrowth” and the “patterning and differentiation into esophageal organoids” value ([3]; data not shown) was “did not affect”.
